Assay results as given in patent US5101072A, “Sulfonylhydrazines and their use as antineoplastic agents and as antitrypanosomal agents” (Yale University, priority 1989, dated 1992).

Key:
T. rhodesiense = assay: Oral trypanocidal activity (preliminary); type: in vivo, T. rhodesiense; mice; details: aqueous solutions, preliminary results
From the text: Orally active trypanocidal agents are desirable since, in areas where trypanosomiasis is endemic, other routes of drug administration frequently present problems.

T. gambiense = assay: Activity against T. gambiense
Experimental: (§1) A representative agent, 1,2-bis(methylsulfonyl)-1-methylhydrazine, was also tested against several other trypanosoma species.

L1210 leukemia = assay: Survival time of mice bearing the L1210 leukemia; type: in vivo
Experimental: The tumor-inhibitory properties of several compounds, e.g., 1,2-bis(methylsulfonyl)-1-methylhydrazine, 1-methyl-1,2,2-tris(methylsulfonyl)hydrazine, 1,2-bis(methylsulfonyl)-1,2-dimethylhydrazine and 1-(2-chloroethyl)-1,2,2-tris(methylsulfonyl)hydrazine were determined by measuring the effects of these agents on the survival time of mice bearing the L1210 leukemia as described by K. Shyam, L. A. Cosby, and A. C. Sartorelli, J. Med. Chem., 28, 525-527 (1985).
^a Administered once daily for 6 consecutive days, beginning 24 hours
after tumor transplantation with 5-10 animals being used per group.
^b Average change in body weight from onset to termination of therapy
^c % T/C = average survival time of treated/control animals ×

[1] = Methanol generation in vitro (spontaneous breakdown to generate reactive methyl groups); type: physicochemical; details: aqueous buffered (pH 7.6) solution
Experimental: (§2) The reaction of 1,2-bis(sulfonyl)-1-methylhydrazine with water at pH 7.4-7.6 at 37° C. can be followed by proton release and/or methanol generation. Methanol generation can be assayed using alcohol oxidase and measuring the resultant O2 consumption using a Gilson oxygraph. This assay can be calibrated using methanol standards. The reaction of 1,2-bis(sulfonyl)-1-methylhydrazine with water is relatively fast [a 50 μM solution of 1,2-bis(methylsulfonyl)-1-methylhydrazine decomposes at an initial rate of 12-15% per minute in phosphate buffered saline (pH 7.6) at 37° C.] compared to the hydroylsis of 1,2,2-tris(methylsulfonyl)-1-methylhydrazine. RSO2 N=NMe may also decompose by a free radical mechanism to a smaller extent and methylate by the generation of methyl radicals.
Methanol was produced by these agents in aqueous solutions free from strong competing nucleophiles. Formation of this alcohol was used as a measure of the rate of spontaneous breakdown of these compounds to generate reactive methyl groups. […] These findings provide strong evidence that methylation is essential for the observed biological activity of these compounds.

[2] = system: T. rhodesiense (Y Tat 1.1); assay: Survival time of CD-1 mice infected with T. rhodesiense (trypanocidal activity); type: in vivo, T. rhodesiense (Y Tat 1.1); CD-1 mice; details: single ip dose 0.2 mmol/kg in 0.05 ml of DMSO
Experimental: The trypanocidal properties of several methylating agents including MeSO2 N(Me)N(SO2 Me)2 and MeSO2 N(Me)N(Me)SO2 Me were determined by measuring their effects on the survival time of CD-1 mice infected with T. rhodesiense (Y Tat 1.1), a pleimorphic strain that produces a non-relapsing disease in mice. The level of parasites in the bloodstream and body fluids increases by approximately 10-fold per day and the animals die when the parasite burden exceeds 1 to 2×10^9 cells/ml. Infection with a single viable parasite will kill a mouse in approximately 9 to 10 days.
Mice were infected ip with approximately 10^6 trypanosomes/mouse in phosphate buffered saline containing glucose. This level of parasites produces death in 4 days post-infection. These mice were treated (ip) with a single dose of drug dissolved in the appropriate vehicle 3 days after infection, when the parasitemia was 1 to 3×10^8 cells/ml of blood and the mice, if untreated, would survive for only 24 additional hours. The number of days the mice survived beyond that of the untreated controls was used as a measure of trypanocidal activity. The level of parasitemia in treated mice was measured at regular intervals to distinguish between parasite-related and drug toxicity-related deaths. No toxic deaths were observed. Mice that survived for 30 days without detectable parasitemias were considered cured. The effects of a single dose of various methylating agents on the survival time of trypanosome-bearing mice are summarized in Table II.
^a Drug that was administered was dissolved in 0.5 ml of phosphate
buffered saline containing glucose.
^b Drug that was administered was dissolved in 0.05 ml of DMSO.

T. equiperdum = assay: Activity against T. equiperdum
Experimental: as §1

[3] = Hydrolysis / decomposition in aqueous solution; type: physicochemical
Experimental: In the case of 1,2,2-tris(methylsulfonyl)-1-methylhydrazine, this reaction occurs slowly. A 50 μM solution of this compound hydrolyzes at an initial rate of 1% per minute in phosphate buffered saline (pH 7.6) at 37° C.
Hydrolysis is expected to occur preferentially at N-2 to generate the 1,2-bis(sulfonyl)-1-methylhydrazine. The sulfonic acid and 1,2-bis(sulfonyl)-1-methylhydrazine that are generated are both ionized under these conditions. The release of protons can be used to follow the decomposition of these and related compounds. The release of protons can be assayed by following the decrease in absorbance at 560 nm of a weakly buffered (1 mM potassium phosphate) phenol red (21 mg/l) solution; initial pH 7.6 at 37° C. The assay can be calibrated using HCl standards.
as §2

trypanosomes = assay: Loss of antitrypanosomal activity upon aging of aqueous buffered solutions; type: in vivo; details: aqueous buffered (pH 7.6)
I. brucei brucei = assay: Activity against brucei brucei
Experimental: as §1

T. evansi = assay: Activity against T. evansi
Experimental: as §1

T. brucei = details: cited from earlier work
[4] = system: decarboxylated S-adenosylmethionine (DSAM) and S-adenosylmethionine (SAM); details: cited from earlier work
[5] = system: early-stage sleeping sickness; details: man and animals; cited from earlier work
[6] = late-stage sleeping sickness; cited from earlier work
[7] = L1210, at optimum effective daily dose, once daily × 6 days

CN(NS(C)(=O)=O)S(C)(=O)=O [MeSO2 N(Me)NHSO2 Me, 1,2-bis(methylsulfonyl)-1-methylhydrazine]
Trypanocidal activity on oral administration compared with Table II (T. rhodesiense): comparable activity to that reported in Table II
Activity against T. gambiense (T. gambiense): Activity has been demonstrated
60-day cures, % (L1210 leukemia; [7]): 0%
% T/C (average survival time of treated/control animals × 100) (L1210 leukemia; [7]): 180%
AvΔ Wt, % (average change in body weight from onset to termination of therapy) (L1210 leukemia; mouse, in vivo): -10.7%
Time within which decomposition was complete (no further methanol generated) [1]: ≤ 15 min
Mean Extension of Life [2]: 11.8 days
Activity against T. equiperdum (T. equiperdum): Activity has been demonstrated
Initial rate of hydrolysis / decomposition ([3]; 50 μM solution, phosphate buffered saline (pH 7.6), 37° C.): 12-15 % per minute
Decomposition in aqueous solutions ([3]; acidified solutions): can be inhibited by dosing in acidified solutions
antitrypanosomal activity lost on aging (trypanosomes; after 0 minutes of aging): 0%
antitrypanosomal activity lost on aging (trypanosomes; after 1 minute of aging): 21%
antitrypanosomal activity lost on aging (trypanosomes; after 5 minutes of aging): 73%
antitrypanosomal activity lost on aging (trypanosomes; after 15 minutes of aging): 97%
Activity against I. brucei brucei (I. brucei brucei): Activity has been demonstrated
Activity against T. evansi (T. evansi): Activity has been demonstrated

NCCC[C@](N)(C(=O)O)C(F)F [DFMO, alpha-difluoromethylornithine]
Induction of differentiation in T. brucei (T. brucei): induce differentiation in T. brucei
increase in decarboxylated S-adenosylmethionine (DSAM) and S-adenosylmethionine (SAM) [4]: 1000 fold
Efficacy against early-stage sleeping sickness [5]: effective against early-stage sleeping sickness

Nc1nc(N)nc(Nc2ccc([As]3SCC(CO)S3)cc2)n1 (centres unmarked) [melarsoprol]
patients die due to drug toxicity [6]: up to 5%
